Test results as given in the NIST ThermoML archive (doi:10.1021/acs.jced.5b00805).
Numbers after ± are expanded uncertainties.

How the values were obtained:
[1] = wn = mass fraction of the nth substance listed; conditions: 100 kPa, Liquid, Vibrating tube method
[2] = refractive index (Na D-line) (dimensionless); wn = mass fraction of the nth substance listed; conditions: 100 kPa, Liquid, Standard Abbe refractometry

mass density ([1]; 288.15 K, w1 = 0.4413)	mass density ([1]; 308.15 K, w1 = 0.4664)	refractive index ([2]; 288.15 K, w1 = 0.4413)	refractive index ([2]; 308.15 K, w1 = 0.4664)	mass density ([1]; 288.15 K, w1 = 0.2601)	mass density ([1]; 308.15 K, w1 = 0.2537)	refractive index ([2]; 288.15 K, w1 = 0.2601)	refractive index ([2]; 308.15 K, w1 = 0.2537)	SMILES
1287.19 ± 1.1 kg/m3	1301.11 ± 1.1 kg/m3	1.4394 ± 0.0004	1.4365 ± 0.0004					[Cl-].[Li+] [lithium chloride] + O
				1236.43 ± 1 kg/m3	1226.22 ± 1 kg/m3	1.3845 ± 0.0004	1.3738 ± 0.0004	O=S(=O)([O-])[O-].[Li+].[Li+] [lithium sulfate] + O
